Test results from US7582611B2, “Motilide compounds” (Pfizer Inc., priority 2005, dated 2009).
≈ marks a conversion by molar mass, not a printed value.

Tests used:
[1] = biological target: T1, Motilin Receptor (Oryctolagus cuniculus, UniProt G1T803); experiment: Tissue based assay for motilin agonist potency (rabbit duodenum contractility); format: cell-based; conditions: rabbit duodenum strips, contraction normalized to 1 μM carbachol; read-out: Motilin Receptor Agonist Activity (EC50)
T1 construct: strips of longitudinal smooth muscle were sliced from the segments; from tissue; host or cells: rabbit duodenum longitudinal smooth muscle strips
T1 sequence (G1T803 1-400): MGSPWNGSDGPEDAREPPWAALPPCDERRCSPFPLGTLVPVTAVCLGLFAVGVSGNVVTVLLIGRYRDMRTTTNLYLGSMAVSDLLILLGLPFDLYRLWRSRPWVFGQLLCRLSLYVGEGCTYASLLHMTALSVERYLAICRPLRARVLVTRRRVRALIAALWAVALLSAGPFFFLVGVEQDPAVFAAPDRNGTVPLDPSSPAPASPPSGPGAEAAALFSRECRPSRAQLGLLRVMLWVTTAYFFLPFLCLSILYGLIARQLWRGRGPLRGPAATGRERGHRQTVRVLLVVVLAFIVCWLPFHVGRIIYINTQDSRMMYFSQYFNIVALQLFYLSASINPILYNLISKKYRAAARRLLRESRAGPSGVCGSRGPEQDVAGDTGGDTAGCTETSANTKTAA
Outline: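 Longitudinal smooth-muscle strips of rabbit duodenum, mucosa removed, in oxygenated Krebs at 37 °C under 1.5 g tension; auxotonic contractions. Cumulative doses at ~2 min intervals, then 1 μM carbachol; responses minus basal tension, normalized to carbachol, fitted to R=(Rmax·C)/(EC50+C) for EC50.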

[2] = system: Streptococcus pneumoniae ATCC 6301; experiment: Evaluation of antibacterial activity (MIC, serial dilutions on 96-well microtiter plates); format: cell-based; conditions: ATCC6301, read-out: Antibacterial Activity (MIC, μg/mL)

Row | Compound | EC50 [1] [nM] | MIC [2] [µg/mL]
1 | CC[C@H]1OC(=O)[C@H](C)[C@@H](O[C@H]2C[C@@](C)(OC)[C@@H](O)[C@H](C)O2)[C@H](C)[C@@H](O[C@@H]2O[C@H](C)C[C@H](N(C)C(C)C)[C@H]2O)[C@](C)(O)C[C@@H](C)[C@H](OCC(=O)NC(C)C)[C@H](C)[C@@H](O)[C@]1(C)O [Compound A-53] | 140 | 128 (≈ 148 µM)
2 | CCNC(=O)NCCO[C@@H]1[C@H](C)[C@@H](O)[C@](C)(O)[C@@H](CC)OC(=O)[C@H](C)[C@@H](O[C@H]2C[C@@](C)(OC)[C@@H](O)[C@H](C)O2)[C@H](C)[C@@H](O[C@@H]2O[C@H](C)C[C@H](N(C)C(C)C)[C@H]2O)[C@](C)(O)C[C@H]1C [Compound A-54] | 100 | > 128
3 | CC[C@H]1OC(=O)[C@H](C)[C@@H](O[C@H]2C[C@@](C)(OC)[C@@H](O)[C@H](C)O2)[C@H](C)[C@@H](O[C@@H]2O[C@H](C)C[C@H](N(C)C(C)C)[C@H]2O)[C@](C)(O)C[C@@H](C)[C@H](OCc2nc[nH]n2)[C@H](C)[C@@H](O)[C@]1(C)O [Compound A-55] | 54 | > 128
4 | CC[C@H]1OC(=O)[C@H](C)[C@@H](O[C@H]2C[C@@](C)(OC)[C@@H](O)[C@H](C)O2)[C@H](C)[C@@H](O[C@@H]2O[C@H](C)C[C@H](N(C)C(C)C)[C@H]2O)[C@](C)(O)C[C@@H](C)[C@H](OCC(=O)O)[C@H](C)[C@@H](O)[C@]1(C)O [Compound A-56] | 150 | 128 (≈ 156 µM)
5 | CCCNC(=S)NCCO[C@@H]1[C@H](C)[C@@H](O)[C@](C)(O)[C@@H](CC)OC(=O)[C@H](C)[C@@H](O[C@H]2C[C@@](C)(OC)[C@@H](O)[C@H](C)O2)[C@H](C)[C@@H](O[C@@H]2O[C@H](C)C[C@H](N(C)C(C)C)[C@H]2O)[C@](C)(O)C[C@H]1C [Compound A-57] | 210 | 128 (≈ 141 µM)
6 | CC[C@H]1OC(=O)[C@H](C)[C@@H](O[C@H]2C[C@@](C)(OC)[C@@H](O)[C@H](C)O2)[C@H](C)[C@@H](O[C@@H]2O[C@H](C)C[C@H](N(C)C(C)C)[C@H]2O)[C@](C)(O)C[C@@H](C)[C@H](OCCNC(=O)c2ccc3[nH]cnc3c2)[C@H](C)[C@@H](O)[C@]1(C)O [Compound A-58] | 37 | 128 (≈ 135 µM)
7 | CC[C@H]1OC(=O)[C@H](C)[C@@H](O[C@H]2C[C@@](C)(OC)[C@@H](O)[C@H](C)O2)[C@H](C)[C@@H](O[C@@H]2O[C@H](C)C[C@H](N(C)C(C)C)[C@H]2O)[C@](C)(O)C[C@@H](C)[C@H](OCC(=O)NCc2ccccc2)[C@H](C)[C@@H](O)[C@]1(C)O [Compound A-59] | 79 | 128 (≈ 140 µM)
8 | CC[C@H]1OC(=O)[C@H](C)[C@@H](O[C@H]2C[C@@](C)(OC)C[C@H](C)O2)[C@H](C)[C@@H](O[C@@H]2O[C@H](C)C[C@H](N(C)C(C)C)[C@H]2O)[C@](C)(O)C[C@@H](C)[C@H](OCC(=O)N(C)C)[C@H](C)[C@@H](O)[C@]1(C)O [Compound A-60] | 190 | 128 (≈ 154 µM)
9 | CC[C@H]1OC(=O)[C@H](C)[C@@H](O[C@H]2C[C@@](C)(OC)C[C@H](C)O2)[C@H](C)[C@@H](O[C@@H]2O[C@H](C)C[C@H](N(C)C(C)C)[C@H]2O)[C@](C)(O)C[C@@H](C)[C@H](OCC(=O)NC)[C@H](C)[C@@H](O)[C@]1(C)O [Compound A-61] | 17 | 128 (≈ 156 µM)
10 | CC[C@H]1OC(=O)[C@H](C)[C@@H](O[C@H]2C[C@@](C)(OC)[C@@H](O)[C@H](C)O2)[C@H](C)[C@@H](O[C@@H]2O[C@H](C)C[C@H](N(C)C(C)C)[C@H]2O)[C@](C)(O)C[C@@H](C)[C@H](OCc2ncc[nH]2)[C@H](C)[C@@H](O)[C@]1(C)O [Compound A-62] | 63 | 128 (≈ 152 µM)
11 | CC[C@H]1OC(=O)[C@H](C)[C@@H](O[C@H]2C[C@@](C)(OC)[C@@H](O)[C@H](C)O2)[C@H](C)[C@@H](O[C@@H]2O[C@H](C)C[C@H](N(C)C(C)C)[C@H]2O)[C@](C)(O)C[C@@H](C)[C@H](OCC(=O)NCCOC)[C@H](C)[C@@H](O)[C@]1(C)O [Compound A-63] | 50 | 128 (≈ 146 µM)
12 | CCOC(=O)NCCO[C@@H]1[C@H](C)[C@@H](O)[C@](C)(O)[C@@H](CC)OC(=O)[C@H](C)[C@@H](O[C@H]2C[C@@](C)(OC)[C@@H](O)[C@H](C)O2)[C@H](C)[C@@H](O[C@@H]2O[C@H](C)C[C@H](N(C)C(C)C)[C@H]2O)[C@](C)(O)C[C@H]1C [Compound A-64] | 100 | 64 (≈ 72.8 µM)
13 | CC[C@H]1OC(=O)[C@H](C)[C@@H](O[C@H]2C[C@@](C)(OC)[C@@H](O)[C@H](C)O2)[C@H](C)[C@@H](O[C@@H]2O[C@H](C)C[C@H](N(C)C(C)C)[C@H]2O)[C@](C)(O)C[C@@H](C)[C@H](OCCNC(=O)OC)[C@H](C)[C@@H](O)[C@]1(C)O [Compound A-65] | 130 | 128 (≈ 148 µM)
14 | CCNC(=S)NCCO[C@@H]1[C@H](C)[C@@H](O)[C@](C)(O)[C@@H](CC)OC(=O)[C@H](C)[C@@H](O[C@H]2C[C@@](C)(OC)[C@@H](O)[C@H](C)O2)[C@H](C)[C@@H](O[C@@H]2O[C@H](C)C[C@H](N(C)C(C)C)[C@H]2O)[C@](C)(O)C[C@H]1C [Compound A-67] | 220 | > 128
15 | CC[C@H]1OC(=O)[C@H](C)[C@@H](O[C@H]2C[C@@](C)(OC)[C@@H](O)[C@H](C)O2)[C@H](C)[C@@H](O[C@@H]2O[C@H](C)C[C@H](N(C)C(C)C)[C@H]2O)[C@](C)(O)C[C@@H](C)[C@H](OCC(=O)Nc2cnccn2)[C@H](C)[C@@H](O)[C@]1(C)O [Compound A-70] | 60 | 128 (≈ 142 µM)
16 | CC[C@H]1OC(=O)[C@H](C)[C@@H](O[C@H]2C[C@@](C)(OC)[C@@H](O)[C@H](C)O2)[C@H](C)[C@@H](O[C@@H]2O[C@H](C)C[C@H](N(C)C(C)C)[C@H]2O)[C@](C)(O)C[C@@H](C)[C@H](OCC(=O)NC)[C@H](C)[C@@H](O)[C@H]1C [Compound A-71] | 90 | > 128
17 | CC[C@H]1OC(=O)[C@H](C)[C@@H](O[C@H]2C[C@@](C)(OC)[C@@H](O)[C@H](C)O2)[C@H](C)[C@@H](O[C@@H]2O[C@H](C)C[C@H](N(C)C(C)C)[C@H]2O)[C@](C)(O)C[C@@H](C)[C@H](OCC(=O)N(C)C)[C@H](C)[C@@H](O)[C@H]1C [Compound A-72] | 270 | > 128
18 | CC[C@H]1OC(=O)[C@H](C)[C@@H](O[C@H]2C[C@@](C)(OC)[C@@H](O)[C@H](C)O2)[C@H](C)[C@@H](O[C@@H]2O[C@H](C)C[C@H](N(C)C(C)C)[C@H]2O)[C@](C)(O)C[C@@H](C)[C@H](OCCCC(=O)NC)[C@H](C)[C@@H](O)[C@]1(C)O [Compound A-73] | 84 | 128 (≈ 148 µM)
19 | CC[C@H]1OC(=O)[C@H](C)[C@@H](O[C@H]2C[C@@](C)(OC)[C@@H](O)[C@H](C)O2)[C@H](C)[C@@H](O[C@@H]2O[C@H](C)C[C@H](N(C)C(C)C)[C@H]2O)[C@](C)(O)C[C@@H](C)[C@H](OCCCCC(=O)NC)[C@H](C)[C@@H](O)[C@]1(C)O [Compound A-74] | 270 | 128 (≈ 146 µM)
20 | CC[C@H]1OC(=O)[C@H](C)[C@@H](O[C@H]2C[C@@](C)(OC)[C@@H](O)[C@H](C)O2)[C@H](C)[C@@H](O[C@@H]2O[C@H](C)C[C@H](N(C)C(C)C)[C@H]2O)[C@](C)(O)C[C@@H](C)[C@H](OC(=O)N(C)C)[C@H](C)[C@@H](O)[C@H]1C [Compound A-75] | 290 | > 128
